According to publication PMC8745223, “Novel 1,3,5-Triazinyl Aminobenzenesulfonamides Incorporating Aminoalcohol, Aminochalcone and Aminostilbene Structural Motifs as Potent Anti-VRE Agents, and Carbonic Anhydrases I, II, VII, IX, and XII Inhibitors” (International Journal of Molecular Sciences, 2021):
Values after ≈ are worked out from the molar mass of the structure shown.

Tests used:
[1] = test system: T1, Enterococcus faecalis VRE 368; assay: organism not typed; design: broth microdilution MIC in BHI, Alamar Blue read-out, 37 °C; settings: 24 h
T1 construct: VRE 368 (vanA clinical isolate)
Experimental: (§1) The inhibition activity against enterococci was evaluated by the microtitration broth method according to the Clinical and Laboratory Standards Institute with some modifications. The compounds were dissolved in DMSO and serially diluted in Brain Hearth Infusion (BHI) to reach concentrations 256–2 µg/mL. […] The experiment was repeated at least three times. All the investigated compounds were tested on their anti-staphylococcal activity against three clinical isolates of methicillin-resistant Staphylococcus aureus (MRSA) and S. aureus ATCC 29213 as the reference and quality control strain.

[2] = test system: T2, Enterococcus faecalis VRE 342 B; assay: organism not typed; design: broth microdilution MIC in BHI, Alamar Blue read-out, 37 °C; settings: 24 h
T2 construct: VRE 342 B (vanA clinical isolate)
Experimental: as §1

hCA I [3] = target: T3, hCA I (Homo sapiens, UniProt P00915); assay: stopped-flow CO2 hydration assay; assay type: biochemical
T3 construct: gene CA1; recombinant
Outline: (§2)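 A stopped-flow method tracked CO2 hydration by recombinant human carbonic anhydrase for 10–100 s, using 0.2 mM phenol red (557 nm), 20 mM Hepes pH 7.5, 20 mM Na2SO4 and 1.7–17 mM CO2. Before the assay, enzyme and inhibitor (diluted to 0.005 nM in buffer) were preincubated for 15 min at room temperature. Initial rates came from at least six traces after subtraction of uncatalysed rates, and each value is the mean of three or more determinations. Ki was obtained by non-linear least-squares fitting with the Cheng–Prusoff equation.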

[4] = stopped-flow CO2 hydration assay; assay type: biochemical, Homo sapiens; settings: read-out: KI (nM) ^a / hCA I
Outline: as §2

hCA VII [5] = target: T4, hCA VII (Homo sapiens, UniProt P43166); assay: stopped-flow CO2 hydration assay; assay type: biochemical
T4 construct: gene CA7; recombinant
Outline: as §2

hCA II [6] = target: T5, hCA II (Homo sapiens, UniProt P00918); assay: stopped-flow CO2 hydration assay; assay type: biochemical
T5 construct: gene CA2; recombinant
Outline: as §2

[7] = test system: T6, Enterococcus faecalis VRE 725 B; assay: organism not typed; design: broth microdilution MIC in BHI, Alamar Blue read-out, 37 °C; settings: 24 h
T6 construct: VRE 725B (vanA clinical isolate)
Experimental: as §1, with “strain. […] All the compounds were tested against Enterococcus faecalis ATCC 29212 as the reference strain and three isolates from American crows of vanA-carrying vancomycin-resistant E. faecalis (VRE), and the activities, expressed as minimum inhibitory concentrations (MICs), are listed in Table 3.” for “strain.”

[8] = test system: T7, E. faecalis ATCC 29212 (EF); assay: microbe, parasite or virus in culture; design: broth microdilution MIC in BHI, Alamar Blue read-out, 37 °C; settings: Enterococcus faecalis, ATCC29212, 24 h
T7 construct: ATCC 29212
Experimental: as §1

hCA VII [9] = target: T4, hCA VII; assay: biochemical; design: stopped-flow CO2 hydration assay, phenol red indicator at 557 nm, 15 min preincubation with inhibitor
Experimental: (§3) AnSX.18MV-R Applied Photophysics stopped-flow instrument (Applied Photophysics, Leatherhead, UK) has been used for assaying the CA catalyzed CO2 hydration activity. Phenol red (at a concentration of 0.2 mM) has been used as an indicator, working at the absorbance maximum of 557 nm, with 20 mM Hepes (pH 7.5) as a buffer and 20 mM Na2SO4 (for maintaining constant the ionic strength), following the CA-catalyzed CO2 hydration reaction for a period of 10–100 s. The CO2 concentrations ranged from 1.7 to 17 mM for the determination of the kinetic parameters and inhibition constants. For each inhibitor, at least six traces of the initial 5–10% of the reaction were used for determining the initial velocity. The uncatalyzed rates were determined in the same manner and were subtracted from the total observed rates. Stock solutions of the inhibitor (0.1 mM) were prepared in distilled-deionized water, and dilutions up to 0.005 nM were done thereafter with the assay buffer. Inhibitor and enzyme solutions were preincubated together for 15 min at room temperature prior to assay in order to allow for the formation of the E–I complex. The inhibition constants were obtained by non-linear least-squares methods using PRISM 3 and the ChengPrusoff equation, as reported earlier, and represent the mean from at least three different determinations. All CA isoforms were recombinant ones and were prepared as reported earlier. Errors in the range of 5–10% of the reported value (Mean from three different assays, by stopped-flow technique). The presence of aminobenzenesulfonamide structural moiety in the structure of target compounds 1–44 can cause inhibition activity in these compounds against human carbonic anhydrases. The inhibition of physiologically relevant hCA I and hCA II can lead to various undesirable side effects. On the other hand, the inhibition of tumor-associated isoenzymes hCA IX and hCA XII could be a great benefit in tumor treatment. Inhibition of isoenzyme hCA VII, which is presented mostly in the brain, can be a new approach for the treatment of epilepsy or chronic neuropathic pain [42, 43]. Compounds 1–44 were evaluated as potential inhibitors of hCA I, hCA II, hCA VII, hCA IX, and hCA XII. The inhibition activities against individual hCAs were determined by methodology based on stopped-flow assay. For completeness, Table 2 also includes the previously published inhibition activities of compounds 2, 3, 5–12 and 18–19. Values of KIs were compared with clinically used sulfonamides as standards—AAZ (acetazolamide), BRZ (brinzolamide), DCP (dichlorphenamide), DZA (dorzolamide), EZA (ethoxzolamide), MZA (methazolamide), and IND (indisulam; canceled in clinical trials).

hCA IX = target: T8, hCA IX (Homo sapiens, UniProt Q16790); assay: biochemical; design: stopped-flow CO2 hydration assay, phenol red indicator at 557 nm, 15 min preincubation with inhibitor
T8 construct: gene CA9; recombinant
Experimental: as §3

hCA I [10] = target: T3, hCA I; assay: biochemical; design: stopped-flow CO2 hydration assay, phenol red indicator at 557 nm, 15 min preincubation with inhibitor
Experimental: as §3

hCA II [11] = target: T5, hCA II; assay: biochemical; design: stopped-flow CO2 hydration assay, phenol red indicator at 557 nm, 15 min preincubation with inhibitor
Experimental: as §3

[12] = test system: T1, Enterococcus faecalis VRE 368; assay: organism not typed; design: broth microdilution MIC in BHI, Alamar Blue read-out, 37 °C; settings: 24 h; remark: listed apart in the source
Experimental: as §1, with “strain. […] All the compounds were tested against Enterococcus faecalis ATCC 29212 as the reference strain and three isolates from American crows of vanA-carrying vancomycin-resistant E. faecalis (VRE), and the activities, expressed as minimum inhibitory concentrations (MICs), are listed in Table 3.” for “strain.”

[13] = test system: T2, Enterococcus faecalis VRE 342 B; assay: organism not typed; design: broth microdilution MIC in BHI, Alamar Blue read-out, 37 °C; settings: 24 h; remark: listed apart in the source
Experimental: as §1, with “strain. […] All the compounds were tested against Enterococcus faecalis ATCC 29212 as the reference strain and three isolates from American crows of vanA-carrying vancomycin-resistant E. faecalis (VRE), and the activities, expressed as minimum inhibitory concentrations (MICs), are listed in Table 3.” for “strain.”

[14] = test system: T7, E. faecalis ATCC 29212 (EF); assay: microbe, parasite or virus in culture; design: broth microdilution MIC in BHI, Alamar Blue read-out, 37 °C; settings: Enterococcus faecalis, ATCC29212, 24 h; remark: listed apart in the source
Experimental: as §1, with “strain. […] All the compounds were tested against Enterococcus faecalis ATCC 29212 as the reference strain and three isolates from American crows of vanA-carrying vancomycin-resistant E. faecalis (VRE), and the activities, expressed as minimum inhibitory concentrations (MICs), are listed in Table 3.” for “strain.”

T3 sequence (P00915 2-261): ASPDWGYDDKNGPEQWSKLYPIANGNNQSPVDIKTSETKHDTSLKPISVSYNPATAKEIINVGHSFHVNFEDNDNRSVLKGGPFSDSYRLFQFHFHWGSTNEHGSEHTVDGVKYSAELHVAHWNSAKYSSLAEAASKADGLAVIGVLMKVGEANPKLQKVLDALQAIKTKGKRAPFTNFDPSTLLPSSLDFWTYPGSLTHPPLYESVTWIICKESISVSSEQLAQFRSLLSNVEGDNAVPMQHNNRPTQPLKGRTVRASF
T4 sequence (P43166 whole entry): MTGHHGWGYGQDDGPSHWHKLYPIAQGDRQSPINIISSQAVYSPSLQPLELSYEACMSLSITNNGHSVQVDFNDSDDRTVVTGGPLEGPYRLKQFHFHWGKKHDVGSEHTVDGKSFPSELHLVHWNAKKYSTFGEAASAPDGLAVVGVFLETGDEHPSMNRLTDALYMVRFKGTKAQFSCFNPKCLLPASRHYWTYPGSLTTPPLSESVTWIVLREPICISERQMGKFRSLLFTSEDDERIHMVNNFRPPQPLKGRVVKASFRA

With `NS(=O)(=O)c1ccc(CNc2nc(NCCCO)nc(Nc3ccc(C(=O)/C=C/c4cccc(O)c4)cc3)n2)cc1` [compound 15, 15] the MIC [1] was 111 µM (≈ 63.9 µg/mL), the MIC [2] was 222 µM (≈ 128 µg/mL) and the Ki (hCA I [3]) was > 10000 nM. For the same molecule, the Ki [4] was > 10000 nM, the Ki (hCA VII [5]) was 25.9 nM and the Ki (hCA II [6]) was 3020 nM. For the same molecule, the MIC [7] was 111 µM (≈ 63.9 µg/mL) and the MIC [8] was 222 µM (≈ 128 µg/mL).
In the case of `NS(=O)(=O)c1ccc(CCNc2nc(Nc3ccc(O)cc3)nc(Nc3ccc(C(=O)/C=C/c4ccccc4)cc3)n2)cc1` [compound 21, (E)-4-[2-({4-[(4-Cinnamoylphenyl)amino]-6-[(4-hydroxyphenyl)amino]-1,3,5-triazin-2-yl}amino)ethyl]benzenesulfonamide], the MIC [1] is reported as 26.3 µM (≈ 16 µg/mL), the MIC [2] is reported as 26.3 µM (≈ 16 µg/mL) and the Ki (hCA I [3]) is reported as > 10000 nM. For the same molecule, the Ki [4] was > 10000 nM, the Ki (hCA VII [5]) was 810 nM and the Ki (hCA II [6]) was 3160 nM. The MIC [7] was 26.3 µM (≈ 16 µg/mL) and the MIC [8] was 26.3 µM (≈ 16 µg/mL).
For `NS(=O)(=O)c1ccc(CCNc2nc(NCC(O)CO)nc(Nc3ccc(C(=O)/C=C/c4ccccc4O)cc3)n2)cc1` (centres unmarked) [compound 23, 23], the MIC [1] was 52.8 µM (≈ 32 µg/mL), the MIC [2] was 52.8 µM (≈ 32 µg/mL) and the Ki (hCA I [3]) was > 10000 nM. The Ki [4] was > 10000 nM, the Ki (hCA VII [5]) was 88.7 nM and the Ki (hCA II [6]) was 83 nM. It also gave an MIC [7] of 105 µM (≈ 63.6 µg/mL) and an MIC [8] of 52.8 µM (≈ 32 µg/mL).
Work on `NS(=O)(=O)c1ccc(CNc2nc(NCC(O)CO)nc(Nc3ccc(C(=O)/C=C/c4ccc(O)cc4)cc3)n2)cc1` (centres unmarked) [compound 28, 28] yielded a Ki (hCA VII [9]) of 594 nM, a Ki (hCA IX) of 8460 nM and a Ki (hCA I [10]) of 8220 nM. The Ki (hCA II [11]) was 184 nM, the MIC [12] was > 444 µM and the MIC [7] was > 444 µM. For the same molecule, the MIC [13] was > 444 µM and the MIC [14] was > 444 µM.
